Source: BindingDB's records for doi:10.1074/jbc.M110.181594 (Institut Pasteur, 2010)

target: T1, 2'-deoxynucleoside 5'-phosphate N-hydrolase 1 (Rattus norvegicus, UniProt O35820); assay: Inhibition Assay
T1 sequence (O35820 whole entry): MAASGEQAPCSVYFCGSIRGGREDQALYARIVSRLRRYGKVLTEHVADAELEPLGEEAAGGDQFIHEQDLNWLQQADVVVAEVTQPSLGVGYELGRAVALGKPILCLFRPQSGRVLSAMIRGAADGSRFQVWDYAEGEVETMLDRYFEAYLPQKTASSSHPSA
Excerpt: Rcl inhibition by nucleotides.

SMILES | Ki [µM]
Nc1nc(=O)c2ncn(COCCOP(=O)(O)O)c2[nH]1 [Acyclovir 5'-monophosphate] | 57
Nc1ncnc2c1ncn2C1OC(COP(O)(O)=S)C(O)C1O (centres undefined) [5'-AMPS] | 14
NC(=O)c1ncn(C2OC(COP(=O)(O)O)C(O)C2O)c1N (centres undefined) [[5-(5-amino-4-carbamoyl-1H-imidazol-1-yl)-3,4-dihydroxyoxolan-2-yl]methyl phosphate] | 52
O=c1[nH]c(=O)c2ncn(C3OC(COP(=O)(O)O)C(O)C3O)c2[nH]1 (centres undefined) [XMP] | 54
